The nature of the data set: dissolution rate in water and gastric fluid. In kind it is physicochemical. The following applies: compared with modification A or A′.

The structures appear in SMILES notation.

With `NC(=O)c1cn(Cc2c(F)cccc2F)nn1` [modification B, 1-(2,6-difluorobenzyl)-1H-1,2,3-triazole-4-carboxamide], the “dissolution rate in gastric fluid” value (gastric fluid) is reported as “substantially faster”. Further, where the note is “water”, the “dissolution rate in water” value is on record as “substantially faster”.
